Measurements reported in patent EP0126849A1, “Pharmacologically active N-amino hydantoin derivatives, their synthesis and intermediates” (THE WELLCOME FOUNDATION LIMITED, priority 1983, dated 1984).
Converted amounts (≈) assume the structure as drawn. Read-outs that look alike come from different tables or passages of the source.

Key:
[1] = test system: mean systemic arterial blood pressure (BP); experiment: Cardiovascular actions in rats: fall in blood pressure and duration of the hypotensive effect; format: in vivo, male Wistar rats; conditions: for Fall in BP Relative Potency PGE1 / Fall in BP Relative Potency PGI2: anaesthetized rat, i.v. injection; for Fall in BP Relative Potency PGE1: potency ratio against PGE1; for Fall in BP Relative Potency PGI2: potency ratio against PGI2; for Duration t½: time from peak hypotensive response to recovery to half its peak, rat i.v.
Method: Anaesthesia was induced in male Wistar rats (250-300 g body weight) with sodium pentobarbitone (30 mg kg^-1, i.v.) and supplemented (3 mg kg^-1) when required. Arterial pressure was recorded from a cannulated femoral artery and heart rate derived from the arterial pulse. Rectal temperature was maintained at 37°C by thermistor-controlled radiant heat. Each compound was injected into a femoral vein in a volume of 0.25 ml and flushed in with 0.2 ml of saline (0.9% w/v). Dose-response relationships for the fall in mean systemic arterial blood pressure (BP) with the hydantoins were constructed and compared to those obtained with PGI2 and PGE, in the same animal, and a potency ratio calculated. […] Figures for Compound X and PGI2 are listed for comparison.

[2] = test system: acid-ethanol induced gastric lesions; experiment: Inhibition of acid-ethanol induced gastric lesions in rats (cytoprotection); format: in vivo; conditions: rat, oral
Method: The inhibition of acid-ethanol induced gastric lesions in rats (cytoprotection) was measured for various doses of orally administered hydantoin. Figures for compound X are given for comparison.

platelet aggregation = experiment: Inhibition of platelet aggregation in human platelet-rich plasma (Born-type aggregometer, ADP or other aggregating agent); format: cell-based; conditions: for IC50 / Potency relative to PGI2: human PRP; for IC50: 1 min incubation at 37°C before aggregating agent; for Potency relative to PGI2: 1 min incubation, PGI2 = 1; for Increase on Incubation (min) 5: increase in potency after 5 min incubation in PRP
Method: Human blood was freshly collected into siliconized (Siloclad; Clay Adams) plastic (Sterilin Ltd.) vessels containing trisodium citrate (3.15%; 0.1 volume with 0.9 volume blood) and centrifuged (200 g for 15 min) at room temperature. The platelet-rich plasma (PRP) was withdrawn into plastic containers and kept at room temperature. Inhibition of […] prior to addition of sufficient adenosine diphosphate (ADP) or other aggregating agent to just cause a non-reversing control aggregation. Dose-inhibition curves were constructed for each compound and the ID50 (dose causing 50% inhibition) was calculated as the dose required to reduce the aggregation to 50% of its control amplitude. […] For comparison, also given are the results upon administration of 5-(6-carboxyhexyl)-1-(3-cyclohexyl-3-hydroxypropyl)hydantoin (Compound X) which is disclosed in UK Specification 1,595,694. -
In this and subsequent biological examples, where a compound number refers to a single diastereoisomer, a mixture of diastereoisomers is indicated by two compound numbers separated by /.

[3] = test system: rabbit platelet aggregation; experiment: Ex vivo rabbit platelet aggregation after i.v. infusion of the hydantoin (ADP 20 µM); format: in vivo, rabbits; conditions: i.v. infusion for 15 min, blood sample 10 min after start of infusion
Method: Male rabbits (2-2.5 kg body weight) were anaesthetized with sodium pentobarbitone (30 mg/kg, i.v. followed by maintenance doses of 3mg/kg) and systemic arterial blood pressure (BP) was recorded from a cannula filled with
heparinized saline (5 units/ml) in a carotid artery; no heparin was administered to the animal. Hydantoins were administered via a cannula in a femoral vein. Blood samples (1.5 ml) were slowly collected into a plastic syringe containing tri-sodium citrate (3.18%, 0.15 ml) from a cannula inserted into a femoral artery, shaken gently and transferred to an Eppendorf plastic tube and spun in a modified Eppendorf centrifuge for 2 sec (Model 5412, maximum centrifugal force 10,000 x g). The PRP was collected and a 0.35 ml aliquot was transferred to the aggregometer and incubated at 37°C for 1 minute prior to addition of sufficient ADP (20 µM) to produce near-maximal aggregation. The time-interval between removal of blood samples and the transference of the PRP to the aggregometer was less than 1.5 min.
Blood samples were removed at 10 min. intervals once the BP of the rabbit had reached steady resting levels, 10-20 min. following the preparative surgical procedures. After three control blood samples had been prepared and the control aggregation of the platelets measured, the hydantoin was infused intravenously for 15 min from a Braun slow-infusion apparatus. Blood samples were collected 10 min after the start of the infusion. Two further 10 min. samples post-infusion were collected prior to commencing further infusions.
The following results list values of ED50 and change in blood pressure. For comparison, also given are the results obtained upon administration of PGIZ and Compound X.

[4] = test system: systemic arterial blood pressure (BP); experiment: Concurrent change in systemic arterial blood pressure in anaesthetized rabbits; format: in vivo; conditions: anaesthetized rabbit, i.v. infusion, at the ED50 dose
Method: Male rabbits (2-2.5 kg body weight) were anaesthetized with sodium pentobarbitone (30 mg/kg, i.v. followed by maintenance doses of 3mg/kg) and systemic arterial blood pressure (BP) was recorded from a cannula filled with heparinized saline (5 units/ml) in a carotid artery; no heparin was administered to the animal. Hydantoins were administered via a cannula in a femoral vein. Blood samples (1.5 ml) were slowly collected into a plastic syringe containing tri-sodium citrate (3.18%, 0.15 ml) from a cannula inserted into a femoral artery, shaken gently and transferred to an Eppendorf plastic tube and spun in a modified Eppendorf centrifuge for 2 sec (Model 5412, maximum centrifugal force 10,000 x g). The PRP was collected and a 0.35 ml aliquot was transferred to the aggregometer and incubated at 37°C for 1 minute prior to addition of sufficient ADP (20 µM) to produce near-maximal aggregation. The time-interval between removal of blood samples and the transference of the PRP to the aggregometer was less than 1.5 min. […] After three control blood samples had been prepared and the control aggregation of the platelets measured, the hydantoin was infused intravenously for 15 min from a Braun slow-infusion apparatus. Blood samples were collected 10 min after the start of the infusion. Two further 10 min. samples post-infusion were collected prior to commencing further infusions. The following results list values of ED50 and change in blood pressure. For comparison, also given are the results obtained upon administration of PGIZ and Compound X.

B.P. = experiment: Cardiovascular studies in the dog: vasodepressor potency and duration; format: in vivo, Dogs; conditions: i.v. bolus
Method: Dogs (10-15 kg body weight) were anaesthetized with chloralose (80 mg/kg i.v.) and maintained with subcutaneous injections of pentobarbitone (3 mg/kg). Drugs were administered via a femoral vein by bolus injection and B.P. was recorded from the right femoral artery. Results give vasodepressor potency and t1 2 duration. Figures for Compound X are provided for comparison.

[5] = Homo sapiens, Platelet, 1 min, read-out: IC50

SMILES	Fall in BP Relative Potency PGE1 [1]	Fall in BP Relative Potency PGI2 [1]	Duration t½ [1] [min]	IC50 (platelet aggregation; [5]) [ng/mL]	Potency relative to PGI2 (platelet aggregation)	Increase on Incubation (min) 5 (platelet aggregation)	IC50 (platelet aggregation) [ngml^-1]	other results
CN1C(=O)C(CCCCCCC(=O)O)N(NCC(O)C2CCCCC2)C1=O (stereo not shown) [37/38]	0.36	0.03	17	3 (≈ 0.00782 µM)	0.18	x7		% inhibition ([2]; Dose 10 μg kg^-1): 71 ± 7%
CCCCCC(O)CNN1C(=O)NC(=O)C1CCCCCCC(=O)O (stereo not shown) [35/36, 5-(6-carboxyhexyl)-1-(2-hydroxyheptylamino)hydantoin]		0.06	0.1	1.27 (≈ 0.00355 µM)	0.49	x1.5		
CCCCC[C@H](O)/C=C/[C@@H]1[C@H]2C/C(=C/CCCC(=O)O)O[C@H]2C[C@H]1O [PGI2, reference compound]	11.0		0.3					ED50 [3]: 0.2 µg/kg/min; Δ BP [4]: -20 mmHg
CCCCCC(O)C=NN1C(=O)NC(=O)C1CCCCCCC(=O)O (stereo not shown) [Compound No. 17, 5-(6-carboxyhexyl)-1-(2-hydroxyheptylideneamino)hydantoin]	0.12	0.01	3.5		0.01	x2	131	
O=C(O)CCCCCCC1C(=O)NC(=O)N1NCC(O)c1ccccc1 (stereo not shown) [Compound No. 34, 5-(6-carboxyhexyl)-1-(2-hydroxy-2-phenylethylamino)hydantoin]					0.003		175	
CCCCCC(O)CNN1C(=O)NC(=O)C1CCCCCCC(=O)O (single isomer, unassigned) [Compound No. 35, 5-(6-carboxyhexyl)-I-(2-hydroxyheptylamino)hydantoin]		0.01	1.3	12.7 (≈ 0.0355 µM)	0.05	x1.5		
O=C(O)CCCCCCC1C(=O)NC(=O)N1NCC(O)c1ccccc1 (stereo not shown) [Compound No. 33, 5-(6-carboxyhexyl)-1-(2-hydroxy-2-phenylethylamino)hydantoin]					0.07	x2	5.3	
O=C(O)CCCCCCC1C(=O)NC(=O)N1N=CCC1CCCCC1 (stereo not shown) [compound 8, 5-(6-carboxyhexyl)-1-(2-cyclahexylethylideneamino) hydantoin]	0.11	0.01	1.0	24 (≈ 0.0683 µM)	0.05			% inhibition ([2]; Dose 25 μg kg^-1): 71 ± 6%; % inhibition ([2]; Dose 50 μg kg^-1): 76 ± 11%
O=C(O)CCCCCCC1C(=O)NC(=O)N1N=CC(O)c1ccccc1 (single isomer, unassigned) [Compound No. 11, 5-(6-carboxyhexyl)-1-(2-hydroxy-2-phenylethylldeneamino)hydantoln]	1.1	0.1	16.0	1 (≈ 0.00277 µM)	0.53	x8		
CCCCCC(O)C=NN1C(=O)NC(=O)C1CCCCCCC(=O)O (stereo not shown) [17/18, 5-(6-carboxyhexyl)-1-(2-hydroxyheptylideneamino)hydantoin]	0.48	0.04	10 to 19		0.12	x2	8	
CCOC(=O)CCCCCCC1C(=O)NC(=O)N1N=CC(OC(C)=O)C1CCCCC1 (stereo not shown) [4/5, 1-(2-acetoxy-2-cyclohexylethylideneamino)-5-(6-ethoxycarbonylhexyl)hydantoin]								% inhibition ([2]; Dose 50 μg kg^-1): 90 ± 6%
O=C(O)CCCCCCC1C(=O)NC(=O)N1NCC(O)C1CCCCC1 (single isomer, unassigned) [compound 29, 5-(6-carboxyhexyl)-1-(2-cyclohexyl-2-hydroxyethylamino)hydantoln]	0.24	0.02	37	6 (≈ 0.0162 µM)	0.16	x7		Δ BP (B.P.; Dose 0.625 ug kg^-1): -26 mm Hg; t1/2 (B.P.; Dose 0.625 ug kg^-1, duration of vasodepressor effect): >30 min; Δ BP (B.P.; Dose 1.25 ug kg^-1): -51 mm Hg; t1/2 (B.P.; Dose 1.25 ug kg^-1, duration of vasodepressor effect): >60 min
O=C(O)CCCCCCC1C(=O)NC(=O)N1NCC(O)c1ccccc1 (stereo not shown) [33/34, 5-(6-carboxyhexyl)-1-(2-hydroxy-2-phenylethylamino) hydantoin]	0.24	0.02	6		0.17	x2	6	
O=C(O)CCCCCCC1C(=O)NC(=O)N1NCC(O)C1CCCCC1 (stereo not shown) [Compound No. 30, 5-(6-carboxyhexyl)-1-(2-cyclohexyl-2-hydroxyethylamino) hydantoin]	0.24	0.02	28	0.9 (≈ 0.00244 µM)	0.64	x6		% inhibition ([2]; Dose 25 μg kg^-1): 65 ± 17%
O=C(O)CCCCCCC1C(=O)NC(=O)N1N=CC(O)Cc1ccccc1 (stereo not shown) [23/24, 5-(6-carboxyhexyl)-1-(2-hydroxy-3-phenylpropylideneamino)hydantoin]								% inhibition ([2]; Dose 10 μg kg^-1): 55 ± 15%
CN1C(=O)C(CCCCCCC(=O)O)N(N=CC(O)C2CCCCC2)C1=O (stereo not shown) [25/26, 5-(6-carboxyhexyl)-1-(2-cyclohexyl-2-hydroxyethylideneamino)-3-methylhydantoin]	1.08	0.09	9	13 (≈ 0.0341 µM)	0.06	x6		
